Literature values as cited in patent US4256737A, “Long acting depot injectable formulations for LH-RH analogues” (Syntex (U.S.A.) Inc., priority 1979, dated 1981).

Conditions: background statement

Substance: (pyro)Glu-His-Trp-Ser-Tyr-Gly-Leu-Arg-Pro-Gly-NH2 [natural LH-RH]
- biological halflife: 1-2 hours
